Where “and” joins values, the source holds several entries; their conditions need not be identical. Equal entries are not always repeated. Toxic doses and inconclusive results are not listed.
System: BDF1 mice, P388 leukemia ip, median survival T/C
Test: NCI In Vivo Anticancer Drug Screen. Data for tumor model P388 Leukemia (intraperitoneal) in B6D2F1 (BDF1) mice
Settings: endpoint: median survival time, higher = longer survival
Method in brief: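 Transplantable tumour in mice; compound vs vehicle dosing; survival scored; ratio of treated to control reported.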

[1] = dose: 100.0 mg/kg/injection, schedule: Q01DX009 (ip), vehicle: Klucel (hydroxypropylcellulose) (HPC)
[2] = dose: 100.0 mg/kg/injection, schedule: Q04DX003 (ip), vehicle: Klucel (hydroxypropylcellulose) (HPC)
[3] = dose: 200.0 mg/kg/injection, schedule: Q04DX003 (ip), vehicle: Klucel (hydroxypropylcellulose) (HPC)
[4] = dose: 400.0 mg/kg/injection, schedule: Q04DX003 (ip), vehicle: Klucel (hydroxypropylcellulose) (HPC)
[5] = dose: 25.0 mg/kg/injection, schedule: Q01DX009 (ip), vehicle: saline with Tween-80
[6] = dose: 44.0 mg/kg/injection, schedule: Q04DX003 (ip), vehicle: saline with Tween-80
[7] = dose: 66.0 mg/kg/injection, schedule: Q04DX003 (ip), vehicle: saline with Tween-80
[8] = dose: 100.0 mg/kg/injection, schedule: Q04DX003 (ip), vehicle: saline with Tween-80
[9] = dose: 100.0 mg/kg/injection, schedule: Q04DX003 (ip), vehicle: saline sonified
[10] = dose: 200.0 mg/kg/injection, schedule: Q04DX003 (ip), vehicle: saline sonified
[11] = dose: 200.0 mg/kg/injection, schedule: Q01DX009 (ip), vehicle: Klucel (hydroxypropylcellulose) (HPC)
[12] = dose: 200.0 mg/kg/injection, schedule: Q04DX003 (ip), vehicle: saline with Tween-80
[13] = dose: 400.0 mg/kg/injection, schedule: Q04DX003 (ip), vehicle: saline with Tween-80
[14] = dose: 50.0 mg/kg/injection, schedule: Q01DX009 (ip), vehicle: saline with Tween-80

Q: How did the T/C (dose: 66.0 mg/kg/injection, schedule: Q01DX009 (ip), vehicle: Klucel (hydroxypropylcellulose) (HPC)) turn out when CCCCn1cnc2c(SC)nc(N)nc21 was run?
A: 95 % of control

Q: What about the T/C [1] of the same compound?
A: 104 % of control

Q: What about the T/C [2] of the same compound?
A: 100 % of control

Q: And the T/C (dose: 150.0 mg/kg/injection, schedule: Q01DX009 (ip), vehicle: Klucel (hydroxypropylcellulose) (HPC))?
A: 100 % of control

Q: And the T/C [3]?
A: 90 % of control

Q: And the T/C [4]?
A: 90 % of control

Q: Which T/C (dose: 16.5 mg/kg/injection, schedule: Q01DX009 (ip), vehicle: saline with Tween-80) does the source give for COC(=O)c1[nH]cnc1/N=N\N(CCF)CCF here?
A: 179 % of control

Q: And the T/C [5]?
A: 188 % of control

Q: What about the T/C (dose: 37.5 mg/kg/injection, schedule: Q01DX009 (ip), vehicle: saline with Tween-80) of the same compound?
A: 166 % of control

Q: And the T/C [6]?
A: 168 % of control

Q: What about the T/C [7] of the same compound?
A: 218 % of control

Q: What about the T/C [8] of the same compound?
A: 86 % of control

Q: Which results are given for Ic1ncnc2c1ncn2C1CCCCO1 (stereo not given)?
A: T/C [9]: 91 % of control; T/C [10]: 91 % of control; T/C (dose: 400.0 mg/kg/injection, schedule: Q04DX003 (ip), vehicle: saline sonified): 91 % of control

Q: Which T/C (dose: 50.0 mg/kg/injection, schedule: Q04DX003 (ip), vehicle: saline sonified) does the source give for COc1ccc2c(c1C)CCC1(C(=O)O)CC(C)C(O)CC21 (stereo not given) here?
A: 95 % of control

Q: What about the T/C [9] of the same compound?
A: 100 % of control

Q: And the T/C [10]?
A: 100 % of control

Q: With Cc1ccc(NC(=O)c2ccc(Cl)cc2)cc1 as the compound, how does the T/C [1] read?
A: 100 % of control

Q: And the T/C [2]?
A: 108 % of control

Q: And the T/C [11]?
A: 109 % of control

Q: What about the T/C [3] of the same compound?
A: 104 % of control

Q: What about the T/C (dose: 400.0 mg/kg/injection, schedule: Q01DX009 (ip), vehicle: Klucel (hydroxypropylcellulose) (HPC)) of the same compound?
A: 90 % of control

Q: What about the T/C [4] of the same compound?
A: 104 % of control

Q: O=Ic1ccccc1 was tested. Which T/C (dose: 6.25 mg/kg/injection, schedule: Q01DX009 (ip), vehicle: Klucel (hydroxypropylcellulose) (HPC)) did it give?
A: 105 % of control and 118 % of control

Q: What about the T/C (dose: 12.5 mg/kg/injection, schedule: Q01DX009 (ip), vehicle: Klucel (hydroxypropylcellulose) (HPC)) of the same compound?
A: 105 % of control and 116 % of control

Q: And the T/C (dose: 25.0 mg/kg/injection, schedule: Q01DX009 (ip), vehicle: Klucel (hydroxypropylcellulose) (HPC))?
A: 122 % of control and 124 % of control and 204 % of control

Q: What about the T/C (dose: 50.0 mg/kg/injection, schedule: Q04DX003 (ip), vehicle: Klucel (hydroxypropylcellulose) (HPC)) of the same compound?
A: 104 % of control

Q: What about the T/C [2] of the same compound?
A: 95 % of control

Q: For Cc1cc(NC(=O)c2ccccc2)c(Cl)cc1N, which T/C (dose: 50.0 mg/kg/injection, schedule: Q04DX003 (ip), vehicle: saline with Tween-80) is on record?
A: 95 % of control

Q: What about the T/C [8] of the same compound?
A: 95 % of control

Q: And the T/C [12]?
A: 95 % of control

Q: How did the T/C [8] turn out when CCCn1c(C)nc2cc(C(F)(F)F)cc(N)c21 was run?
A: 103 % of control

Q: And the T/C [12]?
A: 92 % of control

Q: What about the T/C [13] of the same compound?
A: 97 % of control

Q: What does the source list for CN(C)c1ccc(/C=N/NC(N)=S)nc1?
A: T/C [6]: 159 % of control; T/C [7]: 150 % of control and 163 % of control; T/C [8]: 177 % of control; T/C (dose: 150.0 mg/kg/injection, schedule: Q04DX003 (ip), vehicle: saline with Tween-80): 213 % of control

Q: Which results are given for COc1cccc2c1C(=O)c1c(O)c3c(c(O)c1C2=O)C[C@@](O)(/C(C)=N/NC(=O)c1ccc(Cl)c(Cl)c1)C[C@@H]3OC1CC(N)C(O)C(C)O1 (stereo not given in full)?
A: T/C (dose: 0.5 mg/kg/injection, schedule: Q01DX009 (ip), vehicle: water): 202 % of control; T/C (dose: 1.0 mg/kg/injection, schedule: Q01DX009 (ip), vehicle: water): 234 % of control and 156 % of control; T/C (dose: 2.0 mg/kg/injection, schedule: Q01DX009 (ip), vehicle: water): 295 % of control and 186 % of control; T/C (dose: 4.0 mg/kg/injection, schedule: Q01DX009 (ip), vehicle: water): 295 % of control and 186 % of control

Q: What does the source list for COc1cc2ccc3c(c2cc1OC)C=[N+](C)CC3?
A: T/C [14]: 108 % of control; T/C (dose: 100.0 mg/kg/injection, schedule: Q04DX003 (ip), vehicle: saline): 118 % of control; T/C (dose: 200.0 mg/kg/injection, schedule: Q04DX003 (ip), vehicle: saline): 118 % of control; T/C (dose: 400.0 mg/kg/injection, schedule: Q04DX003 (ip), vehicle: saline): 90 % of control

Q: With CCC(C)(C)c1ccc(Oc2ccccc2)c(N)c1 as the compound, how does the T/C (dose: 100.0 mg/kg/injection, schedule: Q04DX003 (ip), vehicle: other) read?
A: 109 % of control

Q: And the T/C (dose: 200.0 mg/kg/injection, schedule: Q04DX003 (ip), vehicle: other)?
A: 113 % of control

Q: CN(C)c1ccc(C2NC(=S)NC3=C2CCCC3)cc1 (stereo not given) was tested. Which T/C (dose: 12.5 mg/kg/injection, schedule: Q01DX009 (ip), vehicle: saline with Tween-80) did it give?
A: 108 % of control

Q: What about the T/C [5] of the same compound?
A: 111 % of control

Q: What about the T/C [14] of the same compound?
A: 88 % of control and 109 % of control

Q: For Cc1ccc(Nc2nnc(N=Nc3ccccc3)s2)cc1C, which T/C (dose: 100.0 mg/kg/injection, schedule: Q01DX001 (ip), vehicle: Klucel (hydroxypropylcellulose) (HPC)) is on record?
A: 100 % of control

Q: What about the T/C (dose: 200.0 mg/kg/injection, schedule: Q01DX001 (ip), vehicle: Klucel (hydroxypropylcellulose) (HPC)) of the same compound?
A: 90 % of control

Q: And the T/C (dose: 400.0 mg/kg/injection, schedule: Q01DX001 (ip), vehicle: Klucel (hydroxypropylcellulose) (HPC))?
A: 100 % of control

Q: For CS(=O)(=O)OCC(=O)NCC(O)CNC(=O)COS(C)(=O)=O, which T/C (dose: 78.0 mg/kg/injection, schedule: Q04DX003 (ip), vehicle: saline with Tween-80) is on record?
A: 150 % of control

Q: What about the T/C (dose: 177.0 mg/kg/injection, schedule: Q04DX003 (ip), vehicle: saline with Tween-80) of the same compound?
A: 161 % of control

Q: And the T/C (dose: 264.0 mg/kg/injection, schedule: Q04DX003 (ip), vehicle: saline with Tween-80)?
A: 231 % of control and 157 % of control

Q: And the T/C [13]?
A: 209 % of control

Q: Which results are given for Cc1ccc(NC(=S)NC(=O)c2ccco2)cc1Cl?
A: T/C [2]: 100 % of control; T/C [3]: 120 % of control; T/C [4]: 90 % of control

Q: With CC[C@@]1(O)C[C@H](OC2CC(N(C)C)C(O)C(C)O2)c2c(O)c3c(c(O)c2[C@H]1OC1CC(N(C)C)C(O)C(C)O1)C(=O)c1cccc(O)c1C3=O (stereo not given in full) as the compound, how does the T/C (dose: 0.25 mg/kg/injection, schedule: Q01DX010 (ip), vehicle: saline) read?
A: 100 % of control

Q: How did the T/C (dose: 17.0 mg/kg/injection, schedule: Q01DX010 (ip), vehicle: acetone) turn out when CCSc1nc(Cl)cc(Sc2nc(N)nc3nc[nH]c23)n1 was run?
A: 113 % of control

Q: And the T/C (dose: 18.0 mg/kg/injection, schedule: Q01DX009 (ip), vehicle: Klucel (hydroxypropylcellulose) (HPC))?
A: 115 % of control

Q: What about the T/C (dose: 26.0 mg/kg/injection, schedule: Q01DX010 (ip), vehicle: acetone) of the same compound?
A: 168 % of control

Q: And the T/C (dose: 40.0 mg/kg/injection, schedule: Q01DX010 (ip), vehicle: saline)?
A: 150 % of control

Q: What about the T/C (dose: 60.0 mg/kg/injection, schedule: Q01DX010 (ip), vehicle: saline) of the same compound?
A: 165 % of control

Q: What about the T/C (dose: 132.0 mg/kg/injection, schedule: Q01DX010 (ip), vehicle: saline) of the same compound?
A: 110 % of control

Q: What about the T/C [11] of the same compound?
A: 95 % of control

Q: And the T/C (dose: 200.0 mg/kg/injection, schedule: Q01DX010 (ip), vehicle: saline)?
A: 90 % of control

Q: For COC(=O)/C=C/c1c[nH]c2nccnc12, which T/C (dose: 25.0 mg/kg/injection, schedule: Q01DX009 (ip), vehicle: water) is on record?
A: 104 % of control

Q: What about the T/C (dose: 50.0 mg/kg/injection, schedule: Q01DX009 (ip), vehicle: water) of the same compound?
A: 90 % of control and 112 % of control

Q: What about the T/C (dose: 100.0 mg/kg/injection, schedule: Q01DX009 (ip), vehicle: water) of the same compound?
A: 97 % of control and 109 % of control

Q: What about the T/C (dose: 100.0 mg/kg/injection, schedule: Q04DX003 (ip), vehicle: water) of the same compound?
A: 86 % of control

Q: What about the T/C (dose: 200.0 mg/kg/injection, schedule: Q01DX009 (ip), vehicle: water) of the same compound?
A: 115 % of control

Q: What about the T/C (dose: 200.0 mg/kg/injection, schedule: Q04DX003 (ip), vehicle: water) of the same compound?
A: 102 % of control

Q: And the T/C (dose: 300.0 mg/kg/injection, schedule: Q01DX009 (ip), vehicle: water)?
A: 106 % of control

Q: What about the T/C (dose: 400.0 mg/kg/injection, schedule: Q01DX009 (ip), vehicle: water) of the same compound?
A: 93 % of control

Q: What about the T/C (dose: 400.0 mg/kg/injection, schedule: Q04DX003 (ip), vehicle: water) of the same compound?
A: 102 % of control

From PubChem BioAssay AID328 (DTP/NCI, 2004)
